The supplement of paper PMC8967900

How the values were obtained:
Assay in all cases: selective drug sensitivity score (sDSS, relative to normal bone marrow) (sDSS (score)); higher = more potent and effective on the cell line relative to normal bone marrow cells
Conditions in all cases: 72 h
MOLT-4 = tested on: MOLT-4
ALL-SIL = tested on: ALL-SIL
SEM cells = tested on: SEM cells
RCH-ACV = tested on: RCH-ACV
NALL-1 = tested on: NALL-1
DND-41 = tested on: DND-41
KASUMI-2 = tested on: KASUMI-2
PF-382 = tested on: PF-382
COG-LL-402h = tested on: COG-LL-402h
KARPAS-45 = tested on: KARPAS-45
MHH-CALL-2 = tested on: MHH-CALL-2
CCRF-HSB2 = tested on: CCRF-HSB2
JURKAT = tested on: JURKAT
RPMI-8402 = tested on: RPMI-8402
P30-OHKUBO = tested on: P30-OHKUBO
HPB-ALL = tested on: HPB-ALL
KASUMI-10 = tested on: KASUMI-10
MN-60 = tested on: MN-60
SUP-B15 = tested on: SUP-B15
LC4-1 = tested on: LC4-1
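Further: ALL cell lines in 384-well plates, five doses spanning 10,000-fold, each plate scaled between vehicle and 100 µmol/L benzalkonium chloride controls, sDSS an adapted area-under-curve metric.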

CNC(=O)c1ccccc1Sc1ccc2c(/C=C/c3ccccn3)n[nH]c2c1 [Axitinib] (top concentration 10000 nM)
selective drug sensitivity score (MOLT-4): 12.2
selective drug sensitivity score (ALL-SIL): 20.1
selective drug sensitivity score (SEM cells): 13.1
selective drug sensitivity score (RCH-ACV): 11.1
selective drug sensitivity score (NALL-1): 5.56
selective drug sensitivity score (DND-41): 0.16
selective drug sensitivity score (KASUMI-2): 6.56
selective drug sensitivity score (PF-382): 6.96
selective drug sensitivity score (COG-LL-402h): 5.86
selective drug sensitivity score (KARPAS-45): 6.36
selective drug sensitivity score (MHH-CALL-2): -0.34
selective drug sensitivity score (CCRF-HSB2): 11
selective drug sensitivity score (JURKAT): 5.06
selective drug sensitivity score (RPMI-8402): 6.06
selective drug sensitivity score (P30-OHKUBO): 12.2
selective drug sensitivity score (HPB-ALL): 7.56
selective drug sensitivity score (KASUMI-10): 1.86
selective drug sensitivity score (MN-60): -2.94
selective drug sensitivity score (SUP-B15): 16.4
selective drug sensitivity score (LC4-1): 11.8

Cc1c(N)nc([C@H](CC(N)=O)NC[C@H](N)C(N)=O)nc1C(=O)N[C@H](C(=O)N[C@H](C)[C@@H](O)[C@H](C)C(=O)N[C@H](C(=O)NCCc1nc(-c2nc(C(=O)NCCC[S+](C)C)cs2)cs1)[C@@H](C)O)[C@@H](O[C@@H]1O[C@@H](CO)[C@@H](O)[C@H](O)[C@@H]1O[C@H]1O[C@H](CO)[C@@H](O)[C@H](OC(N)=O)[C@@H]1O)c1c[nH]cn1 [Bleomycin] (top concentration 10000 nM)
selective drug sensitivity score (MOLT-4): 2.24
selective drug sensitivity score (ALL-SIL): -1.36
selective drug sensitivity score (SEM cells): 11.1
selective drug sensitivity score (RCH-ACV): 7.54
selective drug sensitivity score (NALL-1): -1.56
selective drug sensitivity score (DND-41): 1.14
selective drug sensitivity score (KASUMI-2): 6.44
selective drug sensitivity score (PF-382): 1.94
selective drug sensitivity score (COG-LL-402h): 2.84
selective drug sensitivity score (KARPAS-45): 1.94
selective drug sensitivity score (MHH-CALL-2): 3.14
selective drug sensitivity score (CCRF-HSB2): -0.06
selective drug sensitivity score (JURKAT): -0.96
selective drug sensitivity score (RPMI-8402): -1.36
selective drug sensitivity score (P30-OHKUBO): 4.44
selective drug sensitivity score (HPB-ALL): -1.86
selective drug sensitivity score (KASUMI-10): 1.14
selective drug sensitivity score (MN-60): -1.86
selective drug sensitivity score (SUP-B15): 6.44
selective drug sensitivity score (LC4-1): 0.54

CC(C)C[C@H](NC(=O)[C@H](Cc1ccccc1)NC(=O)c1cnccn1)B(O)O [Bortezomib] (top concentration 1000 nM)
selective drug sensitivity score (MOLT-4): 2.22
selective drug sensitivity score (ALL-SIL): 4.72
selective drug sensitivity score (SEM cells): 12.9
selective drug sensitivity score (RCH-ACV): 3.42
selective drug sensitivity score (NALL-1): 2.52
selective drug sensitivity score (DND-41): 6.02
selective drug sensitivity score (KASUMI-2): 1.42
selective drug sensitivity score (PF-382): 1.82
selective drug sensitivity score (COG-LL-402h): 1.32
selective drug sensitivity score (KARPAS-45): 1.42
selective drug sensitivity score (MHH-CALL-2): 3.82
selective drug sensitivity score (CCRF-HSB2): 5.82
selective drug sensitivity score (JURKAT): 1.72
selective drug sensitivity score (RPMI-8402): 2.72
selective drug sensitivity score (P30-OHKUBO): 4.72
selective drug sensitivity score (HPB-ALL): 5.22
selective drug sensitivity score (KASUMI-10): 2.92
selective drug sensitivity score (MN-60): -3.38
selective drug sensitivity score (SUP-B15): 8.42
selective drug sensitivity score (LC4-1): 3.32

CCC/C=C/C=C/C(=O)O[C@H]1/C(=C/C(=O)OC)C[C@H]2C[C@H]([C@@H](C)O)OC(=O)C[C@H](O)C[C@@H]3C[C@H](OC(C)=O)C(C)(C)[C@](O)(C[C@@H]4C/C(=C/C(=O)OC)C[C@H](/C=C/C(C)(C)[C@]1(O)O2)O4)O3 [Bryostatin_1] (top concentration 100 nM)
selective drug sensitivity score (MOLT-4): -7.12
selective drug sensitivity score (ALL-SIL): -7.12
selective drug sensitivity score (SEM cells): -7.12
selective drug sensitivity score (RCH-ACV): -7.12
selective drug sensitivity score (NALL-1): -7.12
selective drug sensitivity score (DND-41): 0.88
selective drug sensitivity score (KASUMI-2): -7.12
selective drug sensitivity score (PF-382): 4.18
selective drug sensitivity score (COG-LL-402h): -5.72
selective drug sensitivity score (KARPAS-45): -7.12
selective drug sensitivity score (MHH-CALL-2): 8.68
selective drug sensitivity score (CCRF-HSB2): 20.4
selective drug sensitivity score (JURKAT): -0.02
selective drug sensitivity score (RPMI-8402): -4.52
selective drug sensitivity score (P30-OHKUBO): 20.2
selective drug sensitivity score (HPB-ALL): -7.12
selective drug sensitivity score (KASUMI-10): 6.78
selective drug sensitivity score (MN-60): -7.12
selective drug sensitivity score (SUP-B15): 15.6
selective drug sensitivity score (LC4-1): 30.6
